In patent US11963848B2, “Impactor platform allowing freefall upon impact” (George Mason University, priority 2019, dated 2024):

Tested on: C57Bl/6J wild-type mice with rmTBI
Test: Morris Water Maze assessment for spatial memory in rmTBI mice, intranasal zinc vs vehicle
Assay type: in vivo
Experimental: Subjects were C57Bl/6J wild-type mice that were 6 weeks of age at the time of the first stressor. All mice received rmTBI delivered using a system 100/200.
For 7 days, stress groups were subject to a rotation of varied stressors, including: • 1. Deprivation of food, water, and enrichment for 8 hours. • 2. Exposure to soiled rat bedding in home cage. • 3. Exposure to bobcat urine in home cage. • 4. Forced swim in ice bath for 5 minutes. • 5. Home cage flooded with water. • 6. Home cage placed on orbital shaker for 5 minutes. • 7. Loud static noise for 1 hour. • 8. Restraint in conical Falcon tube for 1 hour.
A second week of varied stressors was administered concurrently with rmTBI. The rmTBI closed-head injury was induced by Leica One Controlled Cortical Impact device with falling platform as in system 100, causing the mouse to rotate upon impact. Anesthetized mice received one mTBI every 48 hours over the course of 7 days for a total of 4 injuries. Immediately following injury, mice were intranasally administered either zinc treatment or vehicle control (water).
Changes in behavior were also analyzed, using the Morris Water Maze assessment for spatial memory over 7 days. In this measure of learning and memory, the mouse is tested for the ability to locate a platform in a pool of water using visual cues. Days 1-6 had 3 trials, and days 2, 4 and 6 used a hidden platform for trial 3. Day 7 comprised a 24-hr probe trial.

## zinc
Day 6, non-stressed mice only, trending stress x zinc interaction F(1,39)=4.002, p=0.052, zinc intranasally after injury vs vehicle, FIG. 11
  time spent in the quadrant of the maze where the platform was present (Morris water maze): beneficial effect
Effect only for stressed mice, stress x zinc interaction F(1,39)=4.207, p=0.047, zinc intranasally after injury vs vehicle, FIG. 10
  number of platform crossings (Morris water maze): significantly increased
Stressed and non-stressed, zinc intranasally immediately after each injury vs vehicle control (water), F(1,39)=2.184, p=0.147, FIG. 9
  latency in locating the maze platform (Morris water maze): did not differ
